# Source: US6835808B2, “Anti-heparin peptides” (Diagnostica-Stago, priority 2000, dated 2004)
# Tests used:
# [1] = Turbidity of the thromboplastin reagent containing the anti-heparin agent (OD at 630 nm); format: physicochemical; settings: anti-heparin agent at 5 μg/ml in thromboplastin-type reagent
# Protocol: The turbidity should be as low as possible for an application in diagnosis, and more particularly in a thromboplastin test (PT).
# This turbidity is determined by measuring the OD at 630 nm on a spectrophotometer (Uvikon 940, Kontron).
# Comment: a reagent serving as a negative control, i.e. without anti-heparin agent, is of use to measure the influence of this anti-heparin agent on the turbidity of the reagent.
# [2] = test system: UFH (unfractionated heparin, Calciparine) in plasma; assay: Anti-heparin power in a PT (Quick time) test with thromboplastin reagent, heparinized vs nonheparinized plasma; format: biochemical; settings: anti-heparin agent at 5 μg/ml in thromboplastin reagent; pool of normal plasma with 0 vs 1 IU/ml UFH; delta relative clotting time
# Protocol: The aim is to analyze the performance (anti-heparin power and turbidity) of anti-heparin agents incorporated into a Diagnostica Stago thromboplastin reagent.
# Analysis of the anti-heparin power: This is the ability of the anti-heparin agent to make the reagent insensitive to the heparin contained in the blood sample:
# The test samples are prepared from a pool of normal plasma which may or may not be overloaded with heparin (plasma heparinized with 1 IU/ml of UFH (Calciparine 25 000 IU/ml, Sanofi)).
# Comment: a reagent serving as a negative control, i.e. without anti-heparin agent, is of use to verify the heparinization of the plasma.
# To determine the Quick Time, the automated device (STA Diagnostica Stago—patent EP 0325874) removes 50 μl of sample plasma, which it allows to incubate at 37° C. for 240 seconds in a cupule containing a bead; it then transfers the cupule into the measuring area and adds 100 μl of thromboplastin reagent to the sample.
# The clotting time was determined in the following way: At constant viscosity, the amplitude of oscillation of the bead in the cupule (oscillation maintained using an electromagnetic field) is constant. When the viscosity increases (clotting phenomenon), the amplitude of oscillation of the bead decreases.
# An algorithm uses this variation in amplitude to determine the clotting time.
# The anti-heparin power is calculated in the following way: determination of the delta relative time between a heparinized and nonheparinized plasma, i.e.:
# [{CT(heparinized plasma)−CT(nonheparinized plasma)}/TC(nonheparinized plasma)×100]
# The anti-heparin power of the compounds according to the invention is estimated to be significant when this delta time is less than 10%.
substance,measurement,setting,value
Pro-K4-(AHA)2-K4-AHA-K4-AHA-K2 [compound 1405],Turbidity OD 630 nm,[1],0.323 OD
same,Anti-UFH power Delta time 0/1 IU/ml (in %),[2],4.2%
Pro-K3-AHA-K4-APA-K4-APA-K2 [1403PK],Turbidity OD 630 nm,[1],0.283 OD
same,Anti-UFH power Delta time 0/1 IU/ml (in %),[2],8.7%
Pro-K3-AHA-K4-APA-K4-APA-K2 [1403P],Turbidity OD 630 nm,[1],0.205 OD
same,Anti-UFH power Delta time 0/1 IU/ml (in %),[2],7.1%
THC-K4-(AHA)2-K4-AHA-K4-AHA-K2 [1415-4],Turbidity OD 630 nm,[1],0.148 OD
same,Anti-UFH power Delta time 0/1 IU/ml (in %),[2],5.9%
Hyp-K4-(AHA)2-K4-AHA-K4-AHA-K2 [1415-3],Turbidity OD 630 nm,[1],0.134 OD
same,Anti-UFH power Delta time 0/1 IU/ml (in %),[2],3.4%
Pro-K4-AHA-K4-APA-K4-APA-K2 [compound 1401],Turbidity OD 630 nm,[1],0.488 OD
same,Anti-UFH power Delta time 0/1 IU/ml (in %),[2],8.1%
Thi-K4-(AHA)2-K4-AHA-K4-AHA-K2 [1415-2],Turbidity OD 630 nm,[1],0.104 OD
same,Anti-UFH power Delta time 0/1 IU/ml (in %),[2],5.7%
Pro-K4-AHA-K4-APA-K3-APA-K3 [compound 1394],Turbidity OD 630 nm,[1],0.399 OD
same,Anti-UFH power Delta time 0/1 IU/ml (in %),[2],6.4%
Pro-K4-AHA-K3-APA-K4-APA-K3 [1408-2],Turbidity OD 630 nm,[1],0.040 OD
same,Anti-UFH power Delta time 0/1 IU/ml (in %),[2],6.9%
Pro-K4-AHA-K3-APA-K3-APA-K2 [compound 1404],Turbidity OD 630 nm,[1],0.147 OD
same,Anti-UFH power Delta time 0/1 IU/ml (in %),[2],7.6%
Pro-K4-(AHA)2-K4-AHA-K3-AHA-K2 [compound 1411],Turbidity OD 630 nm,[1],0.086 OD
same,Anti-UFH power Delta time 0/1 IU/ml (in %),[2],6.5%
PGlu-K4-(AHA)2-K4-AHA-K4-AHA-K2 [1415-5],Turbidity OD 630 nm,[1],0.069 OD
same,Anti-UFH power Delta time 0/1 IU/ml (in %),[2],4.5%
